ChEMBL document CHEMBL1138039, “Discovery and pharmacological evaluation of growth hormone secretagogue receptor antagonists” (J Med Chem, 2006)
Calls of active or inactive are those of the source. The calls are words filed in the database; no cut-off is given here.

What was measured:
[1] = molecular target: T1, Growth hormone secretagogue receptor type 1 (Homo sapiens, UniProt Q92847); test: Activity at GHS receptor by calcium flux assay in CHO-K cells; format: functional, cell-based
[2] = molecular target: T1, Growth hormone secretagogue receptor type 1; test: Inhibition of [125I]ghrelin binding to GHS receptor in CHO-K cells; format: cell-based
[3] = molecular target: T2, Dihydrofolate reductase (Homo sapiens, UniProt P00374); test: Inhibition of human recombinant DHFR assessed as rate of depletion of NADPH
T2 sequence (P00374 whole entry): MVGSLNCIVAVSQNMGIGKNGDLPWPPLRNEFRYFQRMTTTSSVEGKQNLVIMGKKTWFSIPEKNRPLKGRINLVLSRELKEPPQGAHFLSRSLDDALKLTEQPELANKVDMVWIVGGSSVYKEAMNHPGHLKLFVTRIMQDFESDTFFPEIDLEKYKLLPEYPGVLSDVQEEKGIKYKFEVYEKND

[4] = molecular target: T3, Dihydrofolate reductase (Homo sapiens) (UniProt P00374); test: Inhibition of human recombinant DHFR assessed as rate of depletion of NADPH at 1 uM
T3 sequence (whole entry): T2 sequence (P00374 whole entry)

[5] = test system: Mus musculus; test: Reduction of cumulative food intake in fasted DIO mouse at 100 mg/kg, po after 20 mins; format: functional; parameters: scale not given: the % may be the effect or the level left
[6] = Half life in DIO mouse; format: ADME, organism-based; conditions: in vivo
[7] = test system: Mus musculus; test: Reduction of cumulative food intake in fasted DIO mouse at 30 mg/kg, po after 1 hr; format: functional; parameters: scale not given: the % may be the effect or the level left
[8] = test system: Mus musculus; test: Ratio of drug level in brain against plasma in orally dosed DIO mouse; format: ADME, organism-based; conditions: po
[9] = test system: Mus musculus; test: Reduction of cumulative food intake in fasted DIO mouse at 100 mg/kg, po after 1 hr; format: functional; parameters: scale not given: the % may be the effect or the level left
[10] = AUC in orally dosed DIO mouse; format: ADME, organism-based; conditions: plasma, po
[11] = test system: Mus musculus; test: Reduction of cumulative food intake in fasted DIO mouse at 30 mg/kg, po after 20 mins; format: functional; parameters: scale not given: the % may be the effect or the level left
[12] = Ratio of drug level in brain against plasma in rat after 8 hrs; format: ADME, organism-based; conditions: read-out: BBR
[13] = test system: Mus musculus; test: Reduction of cumulative food intake in fasted DIO mouse at 30 mg/kg, ip after 24 hrs; format: functional, organism-based; parameters: dose 30 mg/kg
[14] = test system: Mus musculus; test: Reduction of cumulative food intake in fasted DIO mouse at 30 mg/kg, ip after 4 hrs; format: functional, organism-based; parameters: dose 30 mg/kg
[15] = test system: Mus musculus; test: Reduction of cumulative food intake in fasted DIO mouse at 30 mg/kg, ip after 2 hrs; format: functional, organism-based; parameters: dose 30 mg/kg
[16] = Ratio of drug level in brain against plasma in rat after 1 hr; format: ADME, organism-based; conditions: read-out: BBR
[17] = test system: Mus musculus; test: Decrease of plasma insulin level in C57BL/6J mouse at 50 mg/kg, po after 14 days; format: functional, organism-based; parameters: dose 50 mg/kg
[18] = test system: Mus musculus; test: Decrease of epididymal fat pad weight in C57BL/6J mouse at 50 mg/kg, po after 14 days; format: functional; parameters: scale not given: the % may be the effect or the level left
[19] = test system: Rattus norvegicus; test: Reduction of cumulative food intake in Sprague-Dawley rat at 50 mg/kg, po after 24 hrs; format: functional; parameters: scale not given: the % may be the effect or the level left
[20] = Half life in rat; format: ADME, organism-based; conditions: in vivo
[21] = Ratio of drug level in brain against plasma in rat after 4 hrs; format: ADME, organism-based; conditions: read-out: BBR
[22] = test system: Mus musculus; test: Decrease of food intake in C57BL/6J mouse at 50 mg/kg, po after 1 day; format: functional, organism-based; parameters: dose 50 mg/kg
[23] = test system: Rattus norvegicus; test: Reduction of cumulative food intake in Sprague-Dawley rat at 50 mg/kg, po after 32 hrs; format: functional; parameters: scale not given: the % may be the effect or the level left
[24] = AUC in orally dosed rat; format: ADME, organism-based; conditions: plasma, po
[25] = test system: Mus musculus; test: Change in lean body mass of C57BL/6J mouse at 50 mg/kg, po after 14 days; format: functional, organism-based; parameters: dose 50 mg/kg
[26] = Bioavailability in rat; format: ADME, organism-based; conditions: in vivo
[27] = test system: Mus musculus; test: Decrease of body weight in C57BL/6J mouse at 50 mg/kg, po after 14 days; format: functional; parameters: scale not given: the % may be the effect or the level left

T1 sequence (Q92847 whole entry): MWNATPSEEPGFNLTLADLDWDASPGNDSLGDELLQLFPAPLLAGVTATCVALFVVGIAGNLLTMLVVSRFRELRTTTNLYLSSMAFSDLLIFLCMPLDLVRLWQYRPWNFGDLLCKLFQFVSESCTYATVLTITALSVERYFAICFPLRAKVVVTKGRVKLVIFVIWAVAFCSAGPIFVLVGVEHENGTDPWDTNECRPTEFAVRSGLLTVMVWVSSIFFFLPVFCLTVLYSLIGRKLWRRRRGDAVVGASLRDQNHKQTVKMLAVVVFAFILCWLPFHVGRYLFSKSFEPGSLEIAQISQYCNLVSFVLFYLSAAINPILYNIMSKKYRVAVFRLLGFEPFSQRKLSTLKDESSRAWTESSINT

Structure (SMILES)	IC50 [1] [nM]	IC50 [2] [nM]	IC50 [3] [nM]	further results
CCc1nc(N)nc(N)c1-c1ccc2c(c1)ncn2Cc1ccc(S(C)(=O)=O)cc1	11	4		inhibition [4]: 78%
CC(C)(C)NC(=O)Nc1ccc(-c2c(N)nc(N)nc2COCc2ccccc2)cc1	7		> 100000	Activity [5]: 40%; half-life [6]: 4.5 h; Activity [7]: 60%; BBR [8]: Not Active; Activity [9]: 60%; AUC [10]: 12300 ng·h/mL; Activity [11]: 40%
Nc1nc(N)c(-c2ccc(NCc3ccc(Cl)cc3)cc2)c(COCc2ccccc2)n1				Kp at 8 h [12]: 1.4; Activity [13]: Active; Activity [14]: Active; Activity [15]: Active; Kp at 1 h [16]: 3.1
CC(C)NC(=O)Nc1ccc(-c2c(N)nc(N)nc2COCc2ccccc2)cc1	56		> 10000	
CCc1nc(N)nc(N)c1-c1ccc2c(c1)nc(-c1ccccc1)n2Cc1ccc(S(C)(=O)=O)cc1	249	16	2300	
CC(C)N(C)C(=O)Nc1ccc(-c2c(N)nc(N)nc2COCc2ccccc2)cc1	> 10000			
CCc1nc(N)nc(N)c1-c1ccc(NCc2ccc(S(C)(=O)=O)cc2)cc1	19	7	< 10	inhibition [4]: 99%
CN(C(=O)C1CCCC1)c1ccc(-c2c(N)nc(N)nc2COCc2ccccc2)cc1	> 10000	1670		
CCc1nc(N)nc(N)c1-c1ccc2c(c1)nc(C1CCCC1)n2Cc1ccc(S(C)(=O)=O)cc1	109	8	1830	
Nc1nc(N)c(-c2ccc(NC(=O)C3CCCO3)cc2)c(COCc2ccccc2)n1 (configuration not stated)	> 10000	391		
CCc1nc(N)nc(N)c1-c1ccc(NCc2ccc(Cl)cc2)cc1				bioavailability [26]: 75%
Nc1nc(N)c(-c2ccc(NC(=O)C3CCCC3)cc2)c(COCc2ccccc2)n1	40	18	> 10000	

Second part, led by results:

IC50 [1] [nM]	IC50 [2] [nM]	IC50 [3] [nM]	Structure (SMILES)	further results
343	47		Nc1nc(N)c(-c2ccc(NC(=O)CCc3ccccc3)cc2)c(COCc2ccccc2)n1	
7		> 10000	Nc1nc(N)c(-c2ccc(NC(=O)NCCc3ccccc3)cc2)c(COCc2ccccc2)n1	
408	37	> 10000	Nc1nc(N)c(-c2ccc(NC(=O)Cc3ccccc3)cc2)c(COCc2ccccc2)n1	
> 10000	> 1000		Nc1nc(N)c(-c2ccc(NC(=O)Cc3cccnc3)cc2)c(COCc2ccccc2)n1	
382	70		Nc1nc(N)c(-c2ccc(NC(=O)Cc3ccsc3)cc2)c(COCc2ccccc2)n1	
88		> 10000	Nc1nc(N)c(-c2ccc(NC(=O)Nc3ccccc3)cc2)c(COCc2ccccc2)n1	
> 10000	221		CCC(=O)Nc1ccc(-c2c(N)nc(N)nc2COCc2ccccc2)cc1	
108	72		CC(C)CC(=O)Nc1ccc(-c2c(N)nc(N)nc2COCc2ccccc2)cc1	
137	41	> 10000	Nc1nc(N)c(-c2ccc(NC(=O)Cc3ccsc3Br)cc2)c(COCc2ccccc2)n1	
> 10000	126		Nc1nc(N)c(-c2ccc(NC(=O)c3ccsc3)cc2)c(COCc2ccccc2)n1	
> 10000	2270		CC(=O)Nc1ccc(-c2c(N)nc(N)nc2COCc2ccccc2)cc1	
34			Nc1nc(N)c(-c2ccc(NC(=O)NCc3ccccc3)cc2)c(COCc2ccccc2)n1	
> 10000	3080		Nc1nc(N)c(-c2ccc(NC(=O)c3ccncc3)cc2)c(COCc2ccccc2)n1	
188	66	28000	Nc1nc(N)c(-c2ccc(NC(=O)C3CC3)cc2)c(COCc2ccccc2)n1	Activity [17]: Active; Kp at 8 h [12]: 0.97; Activity [18]: 20%; Activity [19]: 9%; half-life [20]: 2.4 h; Kp at 4 h [21]: 1.1; Activity [22]: Active; Activity [23]: 11%; AUC [24]: 820 ng·h/mL; Kp at 1 h [16]: 0.26; Activity [25]: inactive; bioavailability [26]: 32%; Activity [27]: 5.4%
10			CC(NC(=O)Nc1ccc(-c2c(N)nc(N)nc2COCc2ccccc2)cc1)c1ccccc1 (configuration not stated)	
